{"source": "paper PMC3431236", "about": "“Characterization and optimization of ArtinM lectin expression in Escherichia coli” (BMC Biotechnology, 2012)", "key": {"[1]": {"target": "T1, rArtinM (recombinant ArtinM) (Artocarpus integer, UniProt Q7M1T4, Q3R)", "T1 construct": "coding region from cDNA clone pLL29 in pET29a(+) (NdeI/BamHI, stop codon, untagged), E. coli BL21-CodonPlus(DE3)-RP; initiator Met removed, not N-acetylated; unintentional Q3R; monomer (native is tetramer)", "T1 sequence (Q7M1T4 entry or part of it Q3R)": "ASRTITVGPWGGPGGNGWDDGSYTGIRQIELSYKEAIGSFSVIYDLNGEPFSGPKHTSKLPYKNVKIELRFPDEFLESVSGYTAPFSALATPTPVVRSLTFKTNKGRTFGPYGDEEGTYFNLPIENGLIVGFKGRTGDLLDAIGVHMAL", "experiment": "affinity chromatography on D-mannose column, eluted with free D-mannose", "type": "binding", "settings": "PBS with 0.5 M NaCl, 4 °C; elution with 0.1 M D-mannose; unintentional Q3R carried by the recombinant protein"}, "[2]": {"target": "plant native ArtinM (Artocarpus integrifolia)", "experiment": "SEC; analytical size exclusion chromatography on TSK-G2000sw, 50 mM KH2PO4, 300 mM NaCl, pH 7.4; calibrated with thyroglobulin, immunoglobulin G, ovalbumin and myoglobin"}}, "data": [{"compound": "OC[C@H]1OC(O)[C@@H](O)[C@@H](O)[C@@H]1O", "note": "(stereo partly drawn) [D-mannose]", "values": [{"measurement": "affinity chromatography on D-mannose column, eluted with free D-mannose", "setting": "[1]", "result": "purified from the E. coli lysate by affinity chromatography on a D-mannose column"}]}, {"compound": "plant native ArtinM (natural protein)", "values": [{"measurement": "stoichiometry N", "setting": "[2]", "result": 4}]}]}
